The source made the active and inactive calls. The rule behind the calls is not given here.
What was measured:
Culex quinquefasciatus [1] = assay: Toxicity against third instar larve of Culex quinquefasciatus assessed as mortality at 100 ugcm'-3 after 24 hr; assay type: functional
Culex quinquefasciatus [2] = assay: Toxicity against third instar larve of Culex quinquefasciatus after 24 hr; assay type: functional

Row | SMILES | mortality (Culex quinquefasciatus [1]) | LC50 (Culex quinquefasciatus [2]) [umol/dm3]
1 | O=C(/C=C/c1ccccc1O)c1ccccc1 | 100% | 104
2 | O=C(/C=C/c1ccc([N+](=O)[O-])cc1)c1ccc(O)cc1 |  | 91
3 | O=C(/C=C/c1ccccc1)/C=C/c1ccccc1 |  | 2064.4
4 | CC(/C=C/c1ccccc1)=N\NC(N)=O |  | 2087.9
5 | COc1cccc(/C=C/C(=O)c2ccccc2O)c1-c1ccc(O)cc1 |  | 684.9
6 | O=C(/C=C/c1ccc([N+](=O)[O-])cc1)c1ccccc1O |  | 881.6
7 | O=C(/C=C/c1ccc(Cl)cc1)c1ccccc1 [4-CHLORO CHALCONE] |  | 5
8 | CC(/C=C/c1ccccc1)=N\Nc1ccc([N+](=O)[O-])cc1[N+](=O)[O-] | inactive | 2344.1
9 | O=C(/C=C/C=C/c1ccccc1)c1ccccc1O |  | 1121.1
10 | O=C(/C=C/c1cccc([N+](=O)[O-])c1)c1ccc(O)cc1 |  | 89
11 | O=C(/C=C/c1ccc2c(c1)OCO2)c1ccccc1O |  | 986.1
12 | O=C(/C=C/c1ccccc1)c1ccc(O)cc1 [4'-HYDROXYCHALCONE] |  | 238
13 | O=C(/C=C/c1cccc([N+](=O)[O-])c1)c1ccccc1O |  | 526.6
14 | O=[N+]([O-])c1ccc(NN=C(/C=C/c2ccccc2)/C=C/c2ccccc2)c([N+](=O)[O-])c1 | inactive | 2638.2
15 | O=C(/C=C/c1cccc([N+](=O)[O-])c1)c1ccccc1 |  | 994.4
16 | O=C(/C=C/C=C/c1ccccc1)c1ccccc1 |  | 437
17 | O=C(/C=C/c1ccc(Cl)cc1)c1ccccc1O | 100% | 81
18 | O=C(/C=C/c1ccco1)c1ccccc1O | 100% | 19
19 | O=C(/C=C/c1ccccc1)c1ccccc1 [CHALCONE] | 100% | 90
20 | C(=C\c1ccccc1)/C(=N/Nc1ccccc1)c1ccccc1 |  | 2134.5
21 | O=C(/C=C/c1ccc([N+](=O)[O-])cc1)c1ccccc1 |  | 959.5
22 | O=C(/C=C/c1ccc2c(c1)OCO2)c1ccccc1 |  | 5
23 | COc1cccc(/C=C/C(=O)c2ccccc2)c1-c1ccc(O)cc1 |  | 1474
24 | O=C(/C=C/c1ccccc1)c1ccccc1O [2'-HYDROXYCHALCONE] | 100% | 55
25 | O=[N+]([O-])c1ccc(N/N=C(/C=C/c2ccccc2)c2ccccc2)c([N+](=O)[O-])c1 | inactive | 2531.3
26 | CC(/C=C/c1ccccc1)=N\Nc1ccccc1 |  | 465
27 | CC(/C=C/c1ccccc1)=N/O |  | 345

Source: ChEMBL document CHEMBL3044882, “Mosquito larvicidal studies of some chalcone analogues and their derived products: structureactivity relationship analysis” (2011)
